Experiments:
[1] = test system: antibodies in sera from SARS patients (sera 1a, 1b, 2, 6, 37, 62, London, SARS-yellow, SARS-green); format: binding, human; design: Binding of serum 6 to linear peptides of protein X1 of SARS-CoV Urbani / Binding of serum 37 to linear peptides of protein X1 of SARS-CoV Urbani / Binding of serum 6 to looped/cyclic peptide (PEPSCAN-ELISA) / Binding of serum 37 to looped/cyclic peptide (PEPSCAN-ELISA) / Binding of serum 37 to looped/cyclic peptides of protein X1 of SARS-CoV Urbani / Binding of serum 6 to linear peptides of protein X2 / Binding of serum 37 to linear peptides of protein X2 / Binding of serum 37 to looped/cyclic peptides of protein X2 of SARS-CoV Urbani / Binding of serum 6 to linear peptides of protein M of SARS-CoV Urbani / Binding of serum 37 to linear peptides of protein M of SARS-CoV Urbani / Binding of serum 6 to looped/cyclic peptides of protein M of SARS-CoV Urbani / Binding of serum 37 to looped/cyclic peptides of protein M of SARS-CoV Urbani / Binding of serum 6 to linear peptides of protein X3 of SARS-CoV Urbani / Binding of serum 37 to linear peptides of protein X3 of SARS-CoV Urbani / Binding of serum 37 to looped/cyclic peptides of protein X3 of SARS-CoV Urbani / Binding of serum 6 to linear peptides of protein X4 of SARS-CoV Urbani / Binding of serum 37 to linear peptides of protein X4 of SARS-CoV Urbani / Binding of serum 37 to looped/cyclic peptides of protein X4 of SARS-CoV Urbani / Binding of serum 6 to linear peptides of protein X5 of SARS-CoV Urbani / Binding of serum 37 to linear peptides of protein X5 of SARS-CoV Urbani / Binding of serum 37 to looped/cyclic peptides of protein X5 of SARS-CoV Urbani / Binding of serum 6 to linear peptides of protein N of SARS-CoV Urbani / Binding of serum 37 to linear peptides of protein N of SARS-CoV Urbani / Binding of serum 6 to linear peptide (PEPSCAN-ELISA) / Binding of serum 1a to looped/cyclic peptides of protein N of SARS-CoV Urbani / Binding of serum 1b to looped/cyclic peptides of protein N of SARS-CoV Urbani / Binding of serum 2 to looped/cyclic peptides of protein N of SARS-CoV Urbani / Binding of serum 6 to looped/cyclic peptides of protein N of SARS-CoV Urbani / Binding of serum 37 to looped/cyclic peptides of protein N of SARS-CoV Urbani / Binding of serum 62 to looped/cyclic peptides of protein N of SARS-CoV Urbani / Binding of serum London to looped/cyclic peptides of protein N of SARS-CoV Urbani / Binding of serum SARS-green to looped/cyclic peptides of protein N of SARS-CoV Urbani: unit not given here
[2] = test system: control sera (pooled serum of ten healthy LUMC hospital workers; commercial negative donor pooled serum from the Dutch bloodbank); format: binding, human; design: Binding of Control serum LUMC to linear peptides / Binding of Control serum Blood-bank to linear peptides / Binding of Control serum LUMC to looped peptides / Binding of Control Serum Blood-Bank to Looped peptides / Binding of Control serum LUMC to linear peptides of the protein M of SARS-CoV Urbani / Binding of Control serum Blood-bank to linear peptides of the protein M of SARS-CoV Urbani / Binding of Control serum LUMC to looped peptides of the protein M of SARS-CoV Urbani / Binding of Control Serum Blood-Bank to Looped peptides of the protein M of SARS-CoV Urbani: unit not given here
[3] = test system: rabbit serum obtained by immunizing a rabbit with the SARS-CoV strain Frankfurt 1; format: binding; design: Binding of a rabbit serum to linear peptides / Binding of a rabbit serum to looped peptides / Rabbit serum linear peptides / Rabbit serum looped peptides / Binding of a rabbit serum to linear peptides of protein N of SARS-CoV Urbani (Rabbit serum linear peptides) / Binding of a rabbit serum to looped/cyclic peptides of protein N of SARS-CoV Urbani (Rabbit serum looped peptides): unit not given here

ETNILLNVPLRGTIV
Binding of serum 1a to linear peptides of protein M of SARS-CoV Urbani [1]: 0.7
Binding of serum 1a to looped/cyclic peptides of protein M of SARS-CoV Urbani [1]: 0.5
Binding of serum 1b to linear peptides of protein M of SARS-CoV Urbani [1]: 0.5
Binding of serum 1b to looped/cyclic peptides of protein M of SARS-CoV Urbani [1]: 0.6
Binding of serum 2 to linear peptides of protein M of SARS-CoV Urbani [1]: 0.5
Binding of serum 2 to looped/cyclic peptides of protein M of SARS-CoV Urbani [1]: 0.7
Binding of serum 6 to linear peptides of protein M of SARS-CoV Urbani [1]: 0.4
Binding of serum 6 to looped/cyclic peptides of protein M of SARS-CoV Urbani [1]: 0.8
Binding of serum 37 to linear peptides of protein M of SARS-CoV Urbani [1]: 0.6
Binding of serum 37 to looped/cyclic peptides of protein M of SARS-CoV Urbani [1]: 0.4
Binding of serum 62 to linear peptides of protein M of SARS-CoV Urbani [1]: 0.7
Binding of serum 62 to looped/cyclic peptides of protein M of SARS-CoV Urbani [1]: 0.5
Binding of serum London to linear peptides of protein M of SARS-CoV Urbani [1]: 0.4
Binding of serum London to looped/cyclic peptides of protein M of SARS-CoV Urbani [1]: 0.2
Binding of serum SARS-green to linear peptides of protein M of SARS-CoV Urbani [1]: 0.3
Binding of serum SARS-green to looped/cyclic peptides of protein M of SARS-CoV Urbani [1]: 0.2
Binding of serum SARS-yellow to linear peptides of protein M of SARS-CoV Urbani [1]: 0.1
Binding of serum SARS-yellow to looped/cyclic peptides of protein M of SARS-CoV Urbani [1]: 0.5
Binding of Control Serum Blood-Bank to Looped peptides of the protein M of SARS-CoV Urbani [2]: 1.0
Binding of Control serum Blood-bank to linear peptides of the protein M of SARS-CoV Urbani [2]: 0.7
Binding of Control serum LUMC to linear peptides of the protein M of SARS-CoV Urbani [2]: 0.3
Binding of Control serum LUMC to looped peptides of the protein M of SARS-CoV Urbani [2]: 0.9
Rabbit serum linear peptides [3]: 0.5
Rabbit serum looped peptides [3]: 0.0

LSLHKLLQTLVLKML
Binding of serum 1a to linear peptides of protein X2 [1]: 0.7
Binding of serum 1a to looped/cyclic peptides of protein X2 of SARS-CoV Urbani [1]: 0.5
Binding of serum 1b to linear peptides of protein X2 [1]: 0.4
Binding of serum 1b to looped/cyclic peptides of protein X2 of SARS-CoV Urbani [1]: 0.4
Binding of serum 2 to linear peptides of protein X2 [1]: 0.3
Binding of serum 2 to looped/cyclic peptides of protein X2 of SARS-CoV Urbani [1]: 0.3
Binding of serum 6 to linear peptides of protein X2 [1]: 0.3
Binding of serum 6 to looped/cyclic peptides of protein X2 of SARS-CoV Urbani [1]: 0.6
Binding of serum 37 to linear peptides of protein X2 [1]: 0.4
Binding of serum 37 to looped/cyclic peptides of protein X2 of SARS-CoV Urbani [1]: 0.4
Binding of serum 62 to linear peptides of protein X2 [1]: 0.5
Binding of serum 62 to looped/cyclic peptides of protein X2 of SARS-CoV Urbani [1]: 0.6
Binding of serum London to linear peptides of protein X2 [1]: 0.4
Binding of serum London to looped/cyclic peptides of protein X2 of SARS-CoV Urbani [1]: 1.3
Binding of serum SARS-green to linear peptides of protein X2 [1]: 0.4
Binding of serum SARS-green to looped/cyclic peptides of protein X2 of SARS-CoV Urbani [1]: 0.2
Binding of serum SARS-yellow to linear peptides of protein X2 [1]: 0.2
Binding of serum SARS-yellow to looped/cyclic peptides of protein X2 of SARS-CoV Urbani [1]: 0.6
Binding of Control Serum Blood-Bank to Looped peptides [2]: 0.6
Binding of Control serum Blood-bank to linear peptides [2]: 0.5
Binding of Control serum LUMC to linear peptides [2]: 0.2
Binding of Control serum LUMC to looped peptides [2]: 0.7
Binding of a rabbit serum to linear peptides [3]: 0.3
Binding of a rabbit serum to looped peptides [3]: 0.5

GTRHTYQLRARSVSP
Binding of serum 1a to linear peptides of protein X4 of SARS-CoV Urbani [1]: 0.7
Binding of serum 1a to looped/cyclic peptides of protein X4 of SARS-CoV Urbani [1]: 0.8
Binding of serum 1b to linear peptides of protein X4 of SARS-CoV Urbani [1]: 0.6
Binding of serum 1b to looped/cyclic peptides of protein X4 of SARS-CoV Urbani [1]: 0.5
Binding of serum 2 to linear peptides of protein X4 of SARS-CoV Urbani [1]: 0.8
Binding of serum 2 to looped/cyclic peptides of protein X4 of SARS-CoV Urbani [1]: 1.0
Binding of serum 6 to linear peptides of protein X4 of SARS-CoV Urbani [1]: 0.6
Binding of serum 6 to looped/cyclic peptides of protein X4 of SARS-CoV Urbani [1]: 0.6
Binding of serum 37 to linear peptides of protein X4 of SARS-CoV Urbani [1]: 0.8
Binding of serum 37 to looped/cyclic peptides of protein X4 of SARS-CoV Urbani [1]: 0.7
Binding of serum 62 to linear peptides of protein X4 of SARS-CoV Urbani [1]: 0.8
Binding of serum 62 to looped/cyclic peptides of protein X4 of SARS-CoV Urbani [1]: 0.8
Binding of serum London to linear peptides of protein X4 of SARS-CoV Urbani [1]: 0.8
Binding of serum London to looped/cyclic peptides of protein X4 of SARS-CoV Urbani [1]: 0.3
Binding of serum SARS-green to linear peptides of protein X4 of SARS-CoV Urbani [1]: 0.6
Binding of serum SARS-green to looped/cyclic peptides of protein X4 of SARS-CoV Urbani [1]: 0.5
Binding of serum SARS-yellow to linear peptides of protein X4 of SARS-CoV Urbani [1]: 0.8
Binding of serum SARS-yellow to looped/cyclic peptides of protein X4 of SARS-CoV Urbani [1]: 0.7
Binding of Control Serum Blood-Bank to Looped peptides [2]: 0.7
Binding of Control serum Blood-bank to linear peptides [2]: 0.8
Binding of Control serum LUMC to linear peptides [2]: 0.6
Binding of Control serum LUMC to looped peptides [2]: 0.8
Recognition of the peptide by the rabbit serum [3]: recognized

STQITTDTGIENATF
Binding of serum 1a to linear peptides of protein X1 of SARS-CoV Urbani [1]: 0.5
Binding of serum 1a to looped/cyclic peptides of protein X1 of SARS-CoV Urbani [1]: 0.6
Binding of serum 1b to linear peptides of protein X1 of SARS-CoV Urbani [1]: 0.4
Binding of serum 1b to looped/cyclic peptides of protein X1 of SARS-CoV Urbani [1]: 0.4
Binding of serum 2 to linear peptides of protein X1 of SARS-CoV Urbani [1]: 0.4
Binding of serum 2 to looped/cyclic peptides of protein X1 of SARS-CoV Urbani [1]: 0.3
Binding of serum 6 to linear peptides of protein X1 of SARS-CoV Urbani [1]: 0.5
Binding of serum 6 to looped/cyclic peptides of protein X1 of SARS-CoV Urbani [1]: 0.3
Binding of serum 37 to linear peptides of protein X1 of SARS-CoV Urbani [1]: 0.6
Binding of serum 37 to looped/cyclic peptides of protein X1 of SARS-CoV Urbani [1]: 0.6
Binding of serum 62 to linear peptides of protein X1 of SARS-CoV Urbani [1]: 0.4
Binding of serum 62 to looped/cyclic peptides of protein X1 of SARS-CoV Urbani [1]: 0.6
Binding of serum London to linear peptides of protein X1 of SARS-CoV Urbani [1]: 0.2
Binding of serum London to looped/cyclic peptides of protein X1 of SARS-CoV Urbani [1]: 0.2
Binding of serum SARS-green to linear peptides of protein X1 of SARS-CoV Urbani [1]: 0.3
Binding of serum SARS-green to looped/cyclic peptides of protein X1 of SARS-CoV Urbani [1]: 0.4
Binding of serum SARS-yellow to linear peptides of protein X1 of SARS-CoV Urbani [1]: 0.2
Binding of serum SARS-yellow to looped/cyclic peptides of protein X1 of SARS-CoV Urbani [1]: 0.4
Binding of Control Serum Blood-Bank to Looped peptides [2]: 0.5
Binding of Control serum Blood-bank to linear peptides [2]: 0.5
Binding of Control serum LUMC to linear peptides [2]: 0.6
Binding of Control serum LUMC to looped peptides [2]: 0.6
Binding of a rabbit serum to linear peptides [3]: 0.1
Binding of a rabbit serum to looped peptides [3]: 0.7

SFNPETNILLNVPLR
Binding of serum 1a to linear peptides of protein M of SARS-CoV Urbani [1]: 0.7
Binding of serum 1a to looped/cyclic peptides of protein M of SARS-CoV Urbani [1]: 0.8
Binding of serum 1b to linear peptides of protein M of SARS-CoV Urbani [1]: 0.4
Binding of serum 1b to looped/cyclic peptides of protein M of SARS-CoV Urbani [1]: 0.7
Binding of serum 2 to linear peptides of protein M of SARS-CoV Urbani [1]: 0.5
Binding of serum 2 to looped/cyclic peptides of protein M of SARS-CoV Urbani [1]: 0.9
Binding of serum 6 to linear peptides of protein M of SARS-CoV Urbani [1]: 0.3
Binding of serum 6 to looped/cyclic peptides of protein M of SARS-CoV Urbani [1]: 0.8
Binding of serum 37 to linear peptides of protein M of SARS-CoV Urbani [1]: 0.7
Binding of serum 37 to looped/cyclic peptides of protein M of SARS-CoV Urbani [1]: 0.7
Binding of serum 62 to linear peptides of protein M of SARS-CoV Urbani [1]: 0.7
Binding of serum 62 to looped/cyclic peptides of protein M of SARS-CoV Urbani [1]: 0.8
Binding of serum London to linear peptides of protein M of SARS-CoV Urbani [1]: 0.3
Binding of serum London to looped/cyclic peptides of protein M of SARS-CoV Urbani [1]: 0.3
Binding of serum SARS-green to linear peptides of protein M of SARS-CoV Urbani [1]: 0.3
Binding of serum SARS-green to looped/cyclic peptides of protein M of SARS-CoV Urbani [1]: 0.3
Binding of serum SARS-yellow to linear peptides of protein M of SARS-CoV Urbani [1]: 0.1
Binding of serum SARS-yellow to looped/cyclic peptides of protein M of SARS-CoV Urbani [1]: 1.0
Binding of Control Serum Blood-Bank to Looped peptides of the protein M of SARS-CoV Urbani [2]: 1.0
Binding of Control serum Blood-bank to linear peptides of the protein M of SARS-CoV Urbani [2]: 0.7
Binding of Control serum LUMC to linear peptides of the protein M of SARS-CoV Urbani [2]: 0.4
Binding of Control serum LUMC to looped peptides of the protein M of SARS-CoV Urbani [2]: 1.0
Rabbit serum linear peptides [3]: 0.5
Rabbit serum looped peptides [3]: 0.4
